These molecules were tested on Huh-7 cells containing the self-replicating, subgenomic HCV replicon (assay: HCV replicon assay (luciferase reporter)). Conditions: Hepatitis C virus, Huh-7, 72 h.
Assay type: cell-based
Protocol: Huh-7 cells containing the self-replicating, subgenomic HCV replicon with a stable luciferase (LUC) reporter were cultured in Dulbecco's modified Eagle's medium (DMEM) containing 2 mM L-glutamine and supplemented with 10% heat-inactivated fetal bovine serum (FBS), 1% penicillin-streptomyocin, 1% nonessential amino acids, and 0.5 mg/mL G418.
On the first day, 5,000 HCV replicon cells were plated per well in a 96-well plate. On the following day, test compounds were solubilized in 100% DMSO to 100× the desired final testing concentration. Each compound was then serially diluted (1:3) up to 9 different concentrations. Compounds in 100% DMSO are reduced to 10% DMSO by diluting 1:10 in cell culture media. The compounds were diluted to 10% DMSO with cell culture media, which were used to dose the HCV replicon cells in 96-well format. The final DMSO concentration was 1%. The HCV replicon cells were incubated at 37° C. for 72 hours. At 72 hours, cells were processed when the cells are still subconfluent. Compounds that reduce the LUC signal are determined by Bright-Glo Luciferase Assay (Promega, Madison, Wis.). Percent Inhibition was determined for each compound concentration in relation to the control cells (untreated HCV replicon) to calculate the EC50.

Molecule | EC50 [nM]
CC(C)OC(=O)[C@H](C)N[P@](=S)(OC[C@H]1O[C@@H](n2ccc(=O)[nH]c2=O)[C@](C)(O)[C@@H]1O)Oc1ccccc1 | < 1000
CCC[C@H](NP(=S)(OC[C@H]1O[C@@H](n2ccc(=O)[nH]c2=O)[C@](C)(O)[C@@H]1O)Oc1ccccc1)C(=O)OC(C)C (some centres unmarked) | < 1000
CC(C)OC(=O)[C@H](C)NP(=S)(OC[C@H]1O[C@@H](n2ccc(=O)[nH]c2=O)[C@](C)(O)[C@@H]1O)Oc1ccc(Cl)cc1 (some centres unmarked) | < 1000
CC(C)OC(=O)[C@@H](NP(=S)(OC[C@H]1O[C@@H](n2ccc(=O)[nH]c2=O)[C@](C)(O)[C@@H]1O)Oc1ccccc1)C(C)C (some centres unmarked) | 10000 to 100000
C[C@H](NP(=S)(OC[C@H]1O[C@@H](n2cnc3c(=O)[nH]c(N)nc32)[C@](C)(O)[C@@H]1O)Oc1ccccc1)C(=O)OCC(C)(C)C (some centres unmarked) | < 1000
C[C@H](NP(=S)(OC[C@H]1O[C@@H](n2cnc3c(N)ncnc32)[C@](C)(O)[C@@H]1O)Oc1ccccc1)C(=O)OCC(C)(C)C (some centres unmarked) | < 1000
COc1nc(N)nc2c1ncn2[C@@H]1O[C@H](COP(=S)(N[C@@H](C)C(=O)OC(C)C)Oc2ccccc2)[C@@H](O)[C@@]1(C)F (some centres unmarked) | < 1000
CC(C)OC(=O)[C@H](C)NP(=S)(OC[C@H]1O[C@@H](n2ccc(=O)[nH]c2=O)[C@](C)(F)[C@@H]1O)Oc1ccccc1 (some centres unmarked) | 1000 to 10000
C=CCNc1nc(N)nc2c1ncn2[C@@H]1O[C@H](COP(=S)(N[C@@H](C)C(=O)OC(C)C)Oc2ccccc2)[C@@H](O)[C@@]1(C)O (some centres unmarked) | < 1000
CC(C)OC(=O)[C@H](C)NP(=S)(OC[C@H]1O[C@@H](n2ccc(=O)[nH]c2=O)[C@](C)(OC(=O)C(C)C)[C@@H]1OC(=O)C(C)C)Oc1ccccc1 (some centres unmarked) | < 1000
C[C@H](NP(=S)(OC[C@H]1O[C@@H](n2ccc(=O)[nH]c2=O)[C@](C)(F)[C@@H]1O)Oc1ccccc1)C(=O)OCC(C)(C)C (some centres unmarked) | < 1000

These molecules were tested against T1, NS5B570-Con1 (Delta-21) (Hepatitis C virus genotype 1b, UniProt Q9WMX2) (assay: NS5B inhibition assay). Conditions: IC50 value, incorporation of tritiated NMP into acid-insoluble RNA, 2 hours at 37° C.
T1 construct: NS5B570-Con1 (Delta-21)
Assay type: biochemical, HCV
Protocol: The enzyme activity of NS5B570-Con1 (Delta-21) was measured as an incorporation of tritiated NMP into acid-insoluble RNA products. The complementary IRES (cIRES) RNA sequence was used as a template, corresponding to 377 nucleotides from the 3′-end of HCV (−) strand RNA of the Con-1 strain, with a base content of 21% Ade, 23% Ura, 28% Cyt, and 28% Gua. The cIRES RNA was transcribed in vitro using a T7 transcription kit (Ambion, Inc.) and purified using the Qiagen RNeasy maxi kit. HCV polymerase reactions contained 50 nM NS5B570-Con1, 50 nM cIRES RNA, about 0.5 μCi tritiated NTP, 1 μM of competing cold NTP, 20 mM NaCl, 40 mM Tris-HCl (pH 8.0), 4 mM dithiothreitol, and 4 mM MgCl2. Standard reactions were incubated for 2 hours at 37° C., in the presence of increasing concentration of inhibitor. At the end of the reaction, RNA was precipitated with 10% TCA, and acid-insoluble RNA products were filtered on a size exclusion 96-well plate. After washing of the plate, scintillation liquid was added and radio labeled RNA products were detected according to standard procedures with a Trilux Topcount scintillation counter.

Molecule | IC50 [nM]
C[C@@]1(O)[C@H](O)[C@@H](COP(O)(=S)OP(=O)(O)OP(=O)(O)O)O[C@H]1n1ccc(=O)[nH]c1=O (single isomer, unassigned) [Compound 5a] | 10000 to 100000
C[C@@]1(O)[C@H](O)[C@@H](COP(O)(=S)OP(=O)(O)OP(=O)(O)O)O[C@H]1n1cnc2c(=O)[nH]c(N)nc21 (single isomer, unassigned) [Compound 5h] | 1000 to 10000
C[C@@]1(F)[C@H](O)[C@@H](COP(O)(=S)OP(=O)(O)OP(=O)(O)O)O[C@H]1n1ccc(=O)[nH]c1=O (single isomer, unassigned) [Compound 5c] | 1000 to 10000

Same assay, conditions: read-out: IC50 value, incorporation of tritiated NMP into acid-insoluble RNA, 2 hours at 37° C.

Molecule | IC50 [nM]
C[C@@]1(F)[C@H](O)[C@@H](COP(O)(=S)OP(=O)(O)OP(=O)(O)O)O[C@H]1n1cnc2c(=O)[nH]c(N)nc21 (single isomer, unassigned) [Compound 5f] | < 1000

Each molecule was assayed on HCV genotype 1b HCV replicon harbored in Huh7 cells (assay: Combination testing in HCV replicon (CalcuSyn CI and MacSynergy II synergy volume)). Conditions: combination of compound 3b with the listed combination compound; MacSynergy II (Bliss independence); 72 h; 25-100 synergistic, >100 strongly synergistic.
Assay type: cell-based
Protocol: Two or more test compounds were tested in combination with each other using an HCV genotype 1b HCV replicon harbored in Huh7 cells with a stable luciferase (LUC) reporter. Cells were cultured under standard conditions in Dulbecco's modified Eagle's medium (DMEM; Mediatech Inc, Herndon, Va.) containing 10% heat-inactivated fetal bovine serum (FBS; Mediatech Inc, Herndon, Va.) 2 mM L-glutamine, and nonessential amino acids (JRH Biosciences). HCV replicon cells were plated in a 96-well plate at a density of 10^4 cells per well in DMEM with 10% FBS. […] The cells were incubated with no compound as a control, with the test compounds, or the combination of compounds for 72 h. The direct effects of the combination of the test compounds were examined using a luciferase (LUC) based reporter as determined by the Bright-Glo Luciferase Assay (Promega, Madison, Wis.). Dose-response curves were determined for individual compounds and fixed ratio combinations of two or more test compounds.
The effects of test compound combinations were evaluated by two separate methods. In the Loewe additivity model, the experimental replicon data was analyzed by using CalcuSyn (Biosoft, Ferguson, Mo.), a computer program based on the method of Chou and Talalay. The program uses the experimental data to calculate a combination index (CI) value for each experimental combination tested. A CI value of <1 indicates a synergistic effect, a CI value of 1 indicates an additive effect, and a CI value of >1 indicates an antagonistic effect.
The second method utilized for evaluating combination effects used a program called MacSynergy II. MacSynergy II software was kindly provided by Dr. M. Prichard (University of Michigan). The Prichard Model allows for a three-dimensional examination of drug interactions and a calculation of the synergy volume (units: μM^2 %) generated from running the replicon assay using a checkerboard combination of two or more inhibitors. The volumes of synergy (positive volumes) or antagonism (negative volumes) represent the relative quantity of synergism or antagonism per change in the concentrations of the two drugs. Synergy and antagonism volumes are defined based on the Bliss independence model. In this model, synergy volumes of less than −25 indicate antagonistic interactions, volumes in the −25-25 range indicate additive behavior, volumes in the 25-100 range indicate synergistic behavior and volumes >100 indicate strong synergistic behavior.

Molecule | Synergy Volume [μM^2%]
CC(C)OC(=O)[C@H](C)NP(=O)(OC[C@H]1O[C@@H](n2ccc(=O)[nH]c2=O)[C@](C)(F)[C@@H]1O)Oc1ccccc1 (some centres unmarked) [PSI-7851] | 0
CC(C)(C)OC(=O)N[C@H]1CCCCC/C=C\[C@@H]2C[C@@]2(C(=O)NS(=O)(=O)C2CC2)NC(=O)[C@@H]2C[C@@H](OC(=O)N3Cc4cccc(F)c4C3)CN2C1=O [ITMN-191] | 126
COc1nc(N)nc2c1ncn2[C@@H]1O[C@H](COP(=O)(N[C@@H](C)C(=O)OCC(C)(C)C)Oc2cccc3ccccc23)[C@@H](O)[C@@]1(C)O (some centres unmarked) [INX-189] | 65
CC(C)(C)C#Cc1cc(N(C(=O)[C@H]2CC[C@H](C)CC2)[C@H]2CC[C@H](O)CC2)c(C(=O)O)s1 [VX-222] | 38
CCOc1nc(N)nc2c1ncn2[C@@H]1O[C@@H]2COP(=O)(OC(C)C)O[C@H]2[C@@]1(C)F (some centres unmarked) [PSI-938] | 27
NC(=O)c1ncn([C@@H]2O[C@H](CO)[C@@H](O)[C@H]2O)n1 [Ribavirin, ribavirin] | 22
CCc1cc(CC[C@]2(C3CCCC3)CC(O)=C(Cc3nc4nc(C)cc(C)n4n3)C(=O)O2)cc(CC)n1 [Filibuvir] | 23
CNC(=O)c1c(-c2ccc(F)cc2)oc2cc(N(CCO)S(C)(=O)=O)c(C3CC3)cc12 [HCV-796] | 31
COC(=O)N[C@H](C(=O)N1CCC[C@H]1c1nc(-c2ccc(-c3ccc(-c4c[nH]c([C@@H]5CCCN5C(=O)[C@@H](NC(=O)OC)C(C)C)n4)cc3)cc2)c[nH]1)C(C)C [BMS-790052] | 26
Fc1ccccc1-c1nc2ccn(Cc3ccc(-c4ccc(C(F)(F)F)cc4C(F)(F)F)nn3)cc-2n1 [GS-9190] | 79
C[C@@]1(F)[C@H](O)[C@@H](CO)O[C@H]1n1ccc(N)nc1=O [PSI-6130] | 15
COc1ccc2c(O[C@@H]3C[C@H]4C(=O)N[C@]5(C(=O)NS(=O)(=O)C6CC6)C[C@H]5/C=C\CCCCN(C)C(=O)[C@@H]4C3)cc(-c3nc(C(C)C)cs3)nc2c1C [TMC-435] | 126
COc1ccc2c(O[C@@H]3C[C@H]4C(=O)N[C@]5(C(=O)O)C[C@H]5/C=C\CCCCC[C@H](NC(=O)OC5CCCC5)C(=O)N4C3)cc(-c3csc(NC(C)C)n3)nc2c1 [BILN-2061] | 31
CCC[C@H](NC(=O)[C@@H]1[C@H]2CCC[C@H]2CN1C(=O)[C@@H](NC(=O)[C@@H](NC(=O)c1cnccn1)C1CCCCC1)C(C)(C)C)C(=O)C(=O)NC1CC1 [VX-950, Telaprevir] | 76
IFN-Lambda 1 (protein, UniProt Q8IU54 20-200, looked up) Interferon lambda-1: GPVPTSKPTTTGKGCHIGRFKSLSPQELASFKKARDALEESLKLKNWSCSSPVFPGNWDLRLLQVRERPVALEAELALTLKVLEAAAGPALEDVLDQPLHTLHHILSQLQACIQPQPTAGPRPRGRLHHWLHRLQEAPKKESAGCLEASVTFNLFRLLTRDLKYVADGNLCLRTSTHPEST | 116
IFN-Lambda 2 (protein, UniProt Q8IZJ0 26-200, looked up) Interferon lambda-2: VPVARLHGALPDARGCHIAQFKSLSPQELQAFKRAKDALEESLLLKDCRCHSRLFPRTWDLRQLQVRERPMALEAELALTLKVLEATADTDPALVDVLDQPLHTLHHILSQFRACIQPQPTAGPRTRGRLHHWLYRLQEAPKKESPGCLEASVTFNLFRLLTRDLNCVASGDLCV | 34
IFN-Lambda 3 (protein, UniProt Q8IZI9 22-196, looked up) Interferon lambda-3: VPVARLRGALPDARGCHIAQFKSLSPQELQAFKRAKDALEESLLLKDCKCRSRLFPRTWDLRQLQVRERPVALEAELALTLKVLEATADTDPALGDVLDQPLHTLHHILSQLRACIQPQPTAGPRTRGRLHHWLHRLQEAPKKESPGCLEASVTFNLFRLLTRDLNCVASGDLCV | 35

Reference: patent US9278990B2, “Substituted nucleotide analogs” (priority 2010, dated 2016)
